Test results taken from US9714249B2 (Novartis AG, priority 2013, dated 2017).
pIC50: −log10 of the molar value.

Experiments:
[1] = biological target: CREBBP bromodomain (His-CREBBP (1081-1197)) (Homo sapiens (Human), UniProt Q92793); assay: AlphaScreen in-vitro binding assay for CREBBP; details: acetyl-histone H4 peptide
BRD4 (His-Brd4(44-477)) = BRD4 (His-Brd4(44-477)) (Homo sapiens (Human), UniProt O60885); assay: TR-FRET in-vitro binding assay for BRD4; details: acetyl-histone H4 peptide
Method: All assays were performed in 384 well microtiter plates. Each assay plate contained 8-point serial dilutions for 40 test compounds, plus 16 high- and 16 low controls. Liquid handling and incubation steps were done on an Innovadyne Nanodrop Express equipped with a robotic arm (Thermo CatX, Perkin Elmer/Caliper Twister II) and an incubator (Liconic STX40, Thermo Cytomat 2C450). The assay plates were prepared by addition of 50 nl per well of compound solution in 90% DMSO HummingBird nanodispenser (Zinsser Analytic). […] Reactions were incubated at 30° C. for 35 minutes. […] After 35 minutes incubation at 30° C., plates were measured in a Perkin Elmer EnVision multilabel reader.
Test compounds were dissolved in DMSO (10 mM) and transferred into 1.4 mL flat bottom or V-shaped Matrix tubes carrying a unique 2D matrix. The stock solutions were stored at […] if not used immediately. For the test procedure the vials were defrosted and identified by a scanner whereby a working sheet was generated that guided the subsequent working steps. Compound dilutions were made in 96 well plates. This format enabled the assay of maximally 40 individual test compounds at 8 concentrations (single points) including 4 reference compounds, if desired (known BET inhibitors from the prior art, for this and other assays of the type disclosed herein). The dilution protocol included the production of “pre-dilution plates”, “master plates” and “assay plates”.
Pre-dilution plates: 96 polypropylene well plates were used as pre-dilution plates. A total of 4 pre-dilution plates were prepared including 10 test compounds each on the plate positions A1-A10, one standard compound at A11 and one DMSO control at A12. All dilution steps were done on a HamiltonSTAR robot. […] These plates were used directly for the assay which was performed in a total volume of 13.55 μL. […] Cell Growth Inhibition Assay

THP-1 cells = assay: Cell growth inhibition assay (CellTiter-Glo), THP-1; type: cell-based, human; details: THP-1, 4 days; for GI50: Homo sapiens, 96 h, half-maximal growth inhibition; for THP-1 TGI: total growth inhibition
Summary of the method: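 Growth of each leukemia line in its own serum-containing medium was measured by CellTiter-Glo ATP luminescence after 4 days at 37 °C with 3-fold serial dilutions starting at 10 μM (0.1% DMSO). Readings were corrected for background and day 0, scaled so that vehicle is 100% and medium-only is −100%, and 4-parameter fits gave IC50 and TGI.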

BRD4-NUT-fusion = BRD4-NUT-fusion (Homo sapiens (Human), UniProt O60885+Q86Y26); assay: Nut-foci formation assay (HCS) in HCC2494 NUT midline carcinoma cells; type: cell-based; details: 24 hours, nuclear BRD4-NUT foci, immunofluorescence

CREBBP bromodomain (His-CREBBP (1081-1197)), sequence (Q92793 1081-1197): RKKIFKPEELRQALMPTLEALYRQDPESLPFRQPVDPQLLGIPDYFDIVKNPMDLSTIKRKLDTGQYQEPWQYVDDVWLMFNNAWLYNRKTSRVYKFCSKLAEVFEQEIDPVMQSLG

Compound | pIC50 [1] | pIC50 (BRD4 (His-Brd4(44-477))) | GI50 (THP-1 cells) [nM] | THP-1 TGI (THP-1 cells) [nM] | pIC50 (BRD4-NUT-fusion)
COc1ccc(-n2nc3c(c2C)C(=O)N(c2cc(C)c(=O)n(C)c2)C3c2ccc(Cl)cc2)cn1 (stereo not shown) [Example 20a, 6-(4-chlorophenyl)-5-(1,5-dimethyl-6-oxo-1,6-dihydropyridin-3-yl)-2-(6-methoxypyridin-3-yl)-3-methyl-5,6-dihydropyrrolo[3,4-c]pyrazol-4(2H)-one] | 5.70 | 7.21 | 104 | 178 | 7.13
COc1ncccc1-c1nn(C)c2c1C(=O)N(c1cc(C)c(=O)n(C)c1)C2c1ccc(Cl)cc1 (stereo not shown) [Example 15, 6-(4-chlorophenyl)-5-(1,5-dimethyl-6-oxo-1,6-dihydropyridin-3-yl)-3-(2-methoxypyridin-3-yl)-1-methyl-5,6-dihydropyrrolo[3,4-c]pyrazol-4(1H)-one] | 6.00 | 7.20 | 67.8 | 143 | 7.22
